Laboratory results reported in patent US10865208B2, “ATG7 inhibitors and the uses thereof” (Millennium Pharmaceuticals, Inc., priority 2016, dated 2020).

Biological target: recombinant human His-ATG7 enzyme (Homo sapiens (Human), UniProt O95352)
Assay: ATG7 Enzyme Assay (HTRF/FRET, ATG3-GST and Flag-Gabarap)
Assay type: biochemical
Details: for inhibition at 0.123 µM: Concentration 0.123 μM; for inhibition at 0.123 µM / inhibition at 0.111 µM: read-out: Percent Inhibition; for inhibition at 0.111 µM: Concentration 0.111 μM
Procedure, shortened: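 0.15 nM His-ATG7 was reacted with 5 nM ATG3-GST, 5 nM Flag-Gabarap and 10 μM ATP in HEPES pH 7.5 containing MgCl2, GSH and TCEP for 105 min at 24° C, then stopped with EDTA/KF. Eu-anti-Flag and anti-GST-APC HTRF was read after 2 h. Results are given as single-concentration % inhibition or IC50.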

recombinant human His-ATG7 enzyme, sequence (O95352 whole entry): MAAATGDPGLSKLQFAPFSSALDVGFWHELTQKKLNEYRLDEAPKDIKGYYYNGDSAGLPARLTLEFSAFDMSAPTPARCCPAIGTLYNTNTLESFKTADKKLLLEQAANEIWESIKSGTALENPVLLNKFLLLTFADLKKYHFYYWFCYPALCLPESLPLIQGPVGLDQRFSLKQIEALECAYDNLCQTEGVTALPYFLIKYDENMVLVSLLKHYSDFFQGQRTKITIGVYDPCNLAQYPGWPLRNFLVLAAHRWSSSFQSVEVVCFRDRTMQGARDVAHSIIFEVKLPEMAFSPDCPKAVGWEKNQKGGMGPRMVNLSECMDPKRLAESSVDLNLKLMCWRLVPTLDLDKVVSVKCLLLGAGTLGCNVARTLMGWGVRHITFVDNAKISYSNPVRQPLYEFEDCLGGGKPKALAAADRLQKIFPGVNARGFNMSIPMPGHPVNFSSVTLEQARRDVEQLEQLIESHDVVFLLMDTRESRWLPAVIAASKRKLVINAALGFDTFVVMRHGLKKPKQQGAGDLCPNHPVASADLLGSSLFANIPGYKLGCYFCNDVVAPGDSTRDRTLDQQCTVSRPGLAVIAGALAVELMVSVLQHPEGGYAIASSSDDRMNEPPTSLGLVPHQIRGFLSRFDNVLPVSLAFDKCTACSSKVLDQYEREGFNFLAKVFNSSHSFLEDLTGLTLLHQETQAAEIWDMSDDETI

| Structure (SMILES) | IC50 [nM] | inhibition at 0.123 µM [%] | inhibition at 0.111 µM [%] |
| --- | --- | --- | --- |
| Nc1ncnc2c1c(-c1ccn[nH]1)nn2[C@@H]1O[C@H](COS(N)(=O)=O)[C@@H](O)[C@H]1O [Compound I-68, {(2R,3S,4R,5R)-5-[4-amino-3-(1H-pyrazol-5-yl)-1H-pyrazolo[3,4-d]pyrimidin-1-yl]-3,4-dihydroxytetrahydrofuran-2-yl}methyl sulfamate] | > 500 | 10 |  |
| Cc1cccc(Sc2nn([C@@H]3O[C@H](COS(N)(=O)=O)[C@@H](O)[C@H]3O)c3ncnc(N)c23)c1 [Compound I-69, [(2R,3S,4R,5R)-5-{4-amino-3-[(3-methylphenyl)sulfanyl]-1H-pyrazolo[3,4-d]pyrimidin-1-yl}-3,4-dihydroxytetrahydrofuran-2-yl]methyl sulfamate] | < 20 |  | 86 |
| C=CCOc1nn([C@@H]2O[C@H](COS(N)(=O)=O)[C@@H](O)[C@H]2O)c2ncnc(N)c12 [Compound I-71, {(2R,3S,4R,5R)-5-[3-(allyloxy)-4-amino-1H-pyrazolo[3,4-d]pyrimidin-1-yl]-3,4-dihydroxytetrahydrofuran-2-yl}methyl Sulfamate] | 100 to 500 | 38 |  |
| Nc1ncnc2c1c(SC1CNC1)nn2[C@@H]1O[C@H](COS(N)(=O)=O)[C@@H](O)[C@H]1O [Compound I-72, {(2R,3S,4R,5R)-5-[4-amino-3-(azetidin-3-ylsulfanyl)-1H-pyrazolo[3,4-d]pyrimidin-1-yl]-3,4-dihydroxytetrahydrofuran-2-yl}methyl sulfamate] | 50 to 100 | 65 |  |
| Nc1ncnc2c1c(SCc1ccc(Cl)o1)nn2[C@@H]1O[C@H](COS(N)(=O)=O)[C@@H](O)[C@H]1O [Compound I-73, [(2R,3S,4R,5R)-5-(4-amino-3-{[(5-chloro-2-furyl)methyl]sulfanyl}-1H-pyrazolo[3,4-d]pyrimidin-1-yl)-3,4-dihydroxytetrahydrofuran-2-yl]methyl sulfamate] | 20 to 50 | 83 |  |
| Cc1ccccc1Sc1nn([C@@H]2O[C@H](COS(N)(=O)=O)[C@@H](O)[C@H]2O)c2ncnc(N)c12 [Compound I-74, [(2R,3S,4R,5R)-5-{4-amino-3-[(2-methylphenyl)sulfanyl]-1H-pyrazolo[3,4-d]pyrimidin-1-yl}-3,4-dihydroxytetrahydrofuran-2-yl]methyl sulfamate] | 50 to 100 | 61 |  |
| Nc1ncnc2c1c(OCCCl)nn2[C@@H]1O[C@H](COS(N)(=O)=O)[C@@H](O)[C@H]1O [Compound I-75, {(2R,3S,4R,5R)-5-[4-amino-3-(2-chloroethoxy)-1H-pyrazolo[3,4-d]pyrimidin-1-yl]-3,4-dihydroxytetrahydrofuran-2-yl}methyl Sulfamate] | 100 to 500 | 41 |  |
| Nc1ncnc2c1c(OCc1ccccc1)nn2[C@@H]1O[C@H](COS(N)(=O)=O)[C@@H](O)[C@H]1O [Compound I-76, {(2R,3S,4R,5R)-5-[4-amino-3-(benzyloxy)-1H-pyrazolo[3,4-d]pyrimidin-1-yl]-3,4-dihydroxytetrahydrofuran-2-yl}methyl Sulfamate] | 100 to 500 | 31 |  |
| CC(C)CSc1nn([C@@H]2O[C@H](COS(N)(=O)=O)[C@@H](O)[C@H]2O)c2ncnc(N)c12 [Compound I-77, {(2R,3S,4R,5R)-5-[4-amino-3-(isobutylsulfanyl)-1H-pyrazolo[3,4-d]pyrimidin-1-yl]-3,4-dihydroxytetrahydrofuran-2-yl}methyl sulfamate] | 20 to 50 | 85 |  |
| Nc1ncnc2c1c(Sc1ccccc1Cl)nn2[C@@H]1O[C@H](COS(N)(=O)=O)[C@@H](O)[C@H]1O [Compound I-78, [(2R,3S,4R,5R)-5-{4-amino-3-[(2-chlorophenyl)sulfanyl]-1H-pyrazolo[3,4-d]pyrimidin-1-yl}-3,4-dihydroxytetrahydrofuran-2-yl]methyl sulfamate] | 20 to 50 | 80 |  |
| Nc1ncnc2c1c(I)nn2[C@@H]1O[C@H](COS(N)(=O)=O)[C@@H](O)[C@H]1O [Compound I-79, [(2R,3S,4R,5R)-5-(4-amino-3-iodo-1H-pyrazolo[3,4-d]pyrimidin-1-yl)-3,4-dihydroxytetrahydrofuran-2-yl]methyl sulfamate] | < 20 | 85 |  |
| CN(C)CCSc1nn([C@@H]2O[C@H](COS(N)(=O)=O)[C@@H](O)[C@H]2O)c2ncnc(N)c12 [Compound I-80, [(2R,3S,4R,5R)-5-(4-amino-3-{[2-(dimethylamino)ethyl]sulfanyl}-1H-pyrazolo[3,4-d]pyrimidin-1-yl)-3,4-dihydroxytetrahydrofuran-2-yl]methyl sulfamate] | 100 to 500 | 51 |  |
| Cc1occc1Sc1nn([C@@H]2O[C@H](COS(N)(=O)=O)[C@@H](O)[C@H]2O)c2ncnc(N)c12 [Compound I-81, [(2R,3S,4R,5R)-5-{4-amino-3-[(2-methyl-3-furyl)sulfanyl]-1H-pyrazolo[3,4-d]pyrimidin-1-yl}-3,4-dihydroxytetrahydrofuran-2-yl]methyl sulfamate] | 50 to 100 | 69 |  |
| Nc1ncnc2c1c(Sc1ccccc1)nn2[C@@H]1O[C@H](COS(N)(=O)=O)[C@@H](O)[C@H]1O [Compound I-82, {(2R,3S,4R,5R)-5-[4-amino-3-(phenylsulfanyl)-1H-pyrazolo[3,4-d]pyrimidin-1-yl]-3,4-dihydroxytetrahydrofuran-2-yl}methyl Sulfamate] | 20 to 50 |  | 80 |
| Nc1ncnc2c1c(SCC(F)(F)F)nn2[C@@H]1O[C@H](COS(N)(=O)=O)[C@@H](O)[C@H]1O [Compound I-83, [(2R,3S,4R,5R)-5-{4-amino-3-[(2,2,2-trifluoroethyl)sulfanyl]-1H-pyrazolo[3,4-d]pyrimidin-1-yl}-3,4-dihydroxytetrahydrofuran-2-yl]methyl sulfamate] | 20 to 50 | 82 |  |
| Nc1ncnc2c1c(Sc1cccc3ccccc13)nn2[C@@H]1O[C@H](COS(N)(=O)=O)[C@@H](O)[C@H]1O [Compound I-84, {(2R,3S,4R,5R)-5-[4-amino-3-(1-naphthylsulfanyl)-1H-pyrazolo[3,4-d]pyrimidin-1-yl]-3,4-dihydroxytetrahydrofuran-2-yl}methyl sulfamate] | 50 to 100 | 62 |  |
| Nc1ncnc2c1c(SC(F)F)nn2[C@@H]1O[C@H](COS(N)(=O)=O)[C@@H](O)[C@H]1O [Compound I-85, [(2R,3S,4R,5R)-5-{4-amino-3-[(difluoromethyl)sulfanyl]-1H-pyrazolo[3,4-d]pyrimidin-1-yl}-3,4-dihydroxytetrahydrofuran-2-yl]methyl sulfamate] | 20 to 50 | 77 |  |
| Nc1ncnc2c1c(SCC1(O)CCCCC1)nn2[C@@H]1O[C@H](COS(N)(=O)=O)[C@@H](O)[C@H]1O [Compound I-86, [(2R,3S,4R,5R)-5-(4-amino-3-{[(1-hydroxycyclohexyl)methyl]sulfanyl}-1H-pyrazolo[3,4-d]pyrimidin-1-yl)-3,4-dihydroxytetrahydrofuran-2-yl]methyl Sulfamate] | 50 to 100 | 64 |  |
| C[S+]([O-])c1nn([C@@H]2O[C@H](COS(N)(=O)=O)[C@@H](O)[C@H]2O)c2ncnc(N)c12 (stereo partly drawn) [Compound I-87, {(2R,3S,4R,5R)-5-[4-amino-3-(methylsulfinyl)-1H-pyrazolo[3,4-d]pyrimidin-1-yl]-3,4-dihydroxytetrahydrofuran-2-yl}methyl Sulfamate] | 50 to 100 | 58 |  |
| Nc1ncnc2c1c(SCCc1ccccc1)nn2[C@@H]1O[C@H](COS(N)(=O)=O)[C@@H](O)[C@H]1O [Compound I-88, [(2R,3S,4R,5R)-5-{4-amino-3-[(2-phenylethyl)sulfanyl]-1H-pyrazolo[3,4-d]pyrimidin-1-yl}-3,4-dihydroxytetrahydrofuran-2-yl]methyl sulfamate] | 20 to 50 | 78 |  |
| Cc1ccc(Sc2nn([C@@H]3O[C@H](COS(N)(=O)=O)[C@@H](O)[C@H]3O)c3ncnc(N)c23)cc1 [Compound I-89, [(2R,3S,4R,5R)-5-{4-amino-3-[(4-methylphenyl)sulfanyl]-1H-pyrazolo[3,4-d]pyrimidin-1-yl}-3,4-dihydroxytetrahydrofuran-2-yl]methyl sulfamate] | < 20 |  | 86 |
| N#CCSc1nn([C@@H]2O[C@H](COS(N)(=O)=O)[C@@H](O)[C@H]2O)c2ncnc(N)c12 [Compound I-90, [(2R,3S,4R,5R)-5-{4-amino-3-[(cyanomethyl)sulfanyl]-1H-pyrazolo[3,4-d]pyrimidin-1-yl}-3,4-dihydroxytetrahydrofuran-2-yl]methyl sulfamate] | 20 to 50 | 84 |  |
| Nc1ncnc2c1c(SCC1=CCCCC1)nn2[C@@H]1O[C@H](COS(N)(=O)=O)[C@@H](O)[C@H]1O [Compound I-91, [(2R,3S,4R,5R)-5-{4-amino-3-[(cyclohex-1-en-1-ylmethyl)sulfanyl]-1H-pyrazolo[3,4-d]pyrimidin-1-yl}-3,4-dihydroxytetrahydrofuran-2-yl]methyl Sulfamate] | 20 to 50 | 76 |  |
| CC1OCCC1Sc1nn([C@@H]2O[C@H](COS(N)(=O)=O)[C@@H](O)[C@H]2O)c2ncnc(N)c12 (some centres unmarked) [Compound I-92] | 100 to 500 | 50 |  |
| CSCc1nn([C@@H]2O[C@H](COS(N)(=O)=O)[C@@H](O)[C@H]2O)c2ncnc(N)c12 [Compound I-93, [(2R,3S,4R,5R)-5-{4-amino-3-[(methylsulfanyl)methyl]-1H-pyrazolo[3,4-d]pyrimidin-1-yl}-3,4-dihydroxytetrahydrofuran-2-yl]methyl Sulfamate] | 100 to 500 | 47 |  |
